Test results published in patent US10167311B2, “Boronic acid esters and pharmaceutical formulations thereof” (OHIO STATE INNOVATION FOUNDATION, priority 2014, dated 2019).
Read-outs that look alike come from different tables or passages of the source.

Key:
[1] = Encapsulation (drug entrapment / loading) efficiency of liposomes, Sepharose CL-4B fractions, UV-vis OD 270 nm; assay type: physicochemical; conditions: liposomal formulation; drug in liposome fractions / total drug fractions
Description: The liposome particle size distribution is determined through dynamic light scattering on a NICOMP Submicron Particle Sizer Model 370. The encapsulation efficiency was examined by a UV-visible spectrophotometer as the OD at 270 nm after 1:9 methanol extraction of fractions from the Sepharose CL-4B column (FIG. 1). A reference measurement was also taken of the OD at 450 nm without methanol extraction (FIG. 1). Then, the ratio of total amount of drug content in the liposome fractions to total drug fractions was calculated. In this example, a drug entrapment of 41% was obtained. The liposome particle size distribution was determined through dynamic light scattering on a NICOMP Submicron Particle Sizer Model 370. The encapsulation efficiency was examined by a UV-visible spectrophotometer as the OD at 270 nm after 1:9 methanol dissolution of fractions collected from the Sepharose column. A reference measurement was also taken of the OD at 450 nm without methanol dissolution. Then, the ratio of total amount of drug content in the liposome fractions to total drug fractions was calculated. […] The liposome particle size distribution was determined through dynamic light scattering on a NICOMP Submicron Particle Sizer Model 370. […] Then, the ratio of total amount of drug content in the liposome fractions to total drug fractions was calculated. […] Each fraction was analyzed by UV-vis spectrophotometry. […]

[2] = test system: MV4-11 AML cells; experiment: Survival of MV4-11 engrafted NSG mice; assay type: in vivo; conditions: liposomal formulation, 1 mg/kg twice a week
Description: The therapeutic activity of BTZ-MEGA-CHOL was also investigated using animal studies. NSG mice were injected with 5×10^5 MV4-11 AML cells. The mice were divided into two groups of 10 each (Trial I), and were treated with empty liposomes or the liposomal formulation of BTZ-MEGA-CHOL at 1 mg/kg, twice a week, by tail vein injection. The study was repeated once with 5 mice in each group (Trial II). Three mice from each group were sacrificed after 4 weeks of treatment in Trial I for further analysis.
For Trial I, the p value was 0.0007 (FIG. 9). For Trial II the p value was 0.0019 (FIG. 10). When the data set was viewed as a combination, the p value was <0.0001 and median survival of the mice was 28 days for the empty liposome treated (control) group and 39 days for the BTZ-MEGA-CHOL treated group (FIG. 11).

[3] = cited from earlier work
[4] = Pharmacokinetics in plasma after i.v. administration (boron by ICP-OES); assay type: in vivo; conditions: ICR mice, i.v. 1.0 mg/kg, two-compartment model, mean ± SD (n = 3)
Description: The Pharmacokinetics of L-BTZ was studied in ICR mice (Charles River Lab, Wilmington, Mass.). The PK profile of free BTZ was also determined. Mice were given intravenous injections of free BTZ or L-BTZ at 1.0 mg/kg body weight via tail vein. At selected time intervals, a minimum of 100 μL […] was collected from each mouse using heparin-containing tubes. Plasma was then isolated by centrifugation at 3000× g for 5 min. The drug concentration in plasma was determined by measuring Boron concentration through an inductively coupled plasma-optical emission spectrometer (ICP-OES). The Boron extraction and sample preparation has been described previously. The pharmacokinetic parameters of free BTZ and L-BTZ were calculated using WinNonlin software and a two-compartment model and are shown in Table 1.

| Compound | drug entrapment (encapsulation efficiency) [1] | median survival ([2]; tail vein, Trial I and II combined, p <0.0001 vs empty liposomes (28 days)) | survival of mice ([2]; Trial I p 0.0007, Trial II p 0.0019) | maximum tolerated dose ([3]; intravenous bolus on days 1, 4, 8, and 11 of a 3-week cycle) | maximum tolerated dose ([3]; patients with solid tumors, intravenously once or twice weekly) | T1/2α [4] | T1/2β [4] | AUC ([4]; mouse, iv) | clearance ([4]; mouse, iv) |
| --- | --- | --- | --- | --- | --- | --- | --- | --- | --- |
| CC(C)CCC[C@@H](C)C1CCC2C3CC=C4C[C@@H](OC(=O)N(C)CC(O)[C@H]5OB([C@H](CC(C)C)NC(=O)[C@H](Cc6ccccc6)NC(=O)c6cnccn6)O[C@@H]5C(O)CO)CC[C@]4(C)C3CC[C@@]21C (stereo partly drawn) [BTZ-MEGA-CHOL] | 80.11% | 39 days | significant increase in survival |  |  |  |  |  |  |
| CC(C)C[C@H](NC(=O)[C@H](Cc1ccccc1)NC(=O)c1cnccn1)B(O)O [Free BTZ, Bortezomib] |  |  |  | 1.56 mg/m^2 | 1.3 mg/m^2 | 6 ± 1.2 min | 18.26 ± 13.33 h | 2870 ± 1340 ng·h/mL | 5.8 mL/min/kg |
